Like-named read-outs stand apart in the source and are kept apart here. Values belong to the compound of their own block, whether it stands above or below them.
What was measured:
[1] = biological target: T1, protocollagen prolyl hydroxylase (Gallus gallus, UniProt P16924); experiment: Activity to inhibit protocollagen prolyl hydroxylase; assay type: biochemical, chick embryos; details: concentration required for 50% inhibition of enzymic activity; pH 7.8, 37° C., 30 minutes; substrate (Pro-Pro-Gly)5.4H2O; read-out: ID50 (the source's name) (converted)
T1 construct: 190 chick embryos (14 days old) were homogenized; from tissue; host or cells: whole 14-day chick embryos; Triton X-100 extract, ammonium sulfate, calcium phosphate gel and DEAE-cellulose fractions
T1 sequence (P16924 1-516): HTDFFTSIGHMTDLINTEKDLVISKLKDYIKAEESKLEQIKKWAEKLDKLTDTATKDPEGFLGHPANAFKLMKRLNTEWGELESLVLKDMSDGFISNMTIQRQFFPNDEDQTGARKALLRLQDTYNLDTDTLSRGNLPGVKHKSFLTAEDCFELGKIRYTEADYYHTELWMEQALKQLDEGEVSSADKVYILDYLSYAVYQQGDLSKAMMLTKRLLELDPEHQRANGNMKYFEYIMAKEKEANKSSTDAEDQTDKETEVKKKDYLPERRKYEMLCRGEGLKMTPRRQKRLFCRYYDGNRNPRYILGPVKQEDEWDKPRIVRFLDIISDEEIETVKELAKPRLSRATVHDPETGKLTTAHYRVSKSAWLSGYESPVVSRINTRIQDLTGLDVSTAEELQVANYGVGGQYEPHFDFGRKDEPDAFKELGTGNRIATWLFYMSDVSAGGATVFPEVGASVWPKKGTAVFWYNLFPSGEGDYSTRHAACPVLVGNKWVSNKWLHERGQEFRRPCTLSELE
T1 sequence (P09102 23-515 partner): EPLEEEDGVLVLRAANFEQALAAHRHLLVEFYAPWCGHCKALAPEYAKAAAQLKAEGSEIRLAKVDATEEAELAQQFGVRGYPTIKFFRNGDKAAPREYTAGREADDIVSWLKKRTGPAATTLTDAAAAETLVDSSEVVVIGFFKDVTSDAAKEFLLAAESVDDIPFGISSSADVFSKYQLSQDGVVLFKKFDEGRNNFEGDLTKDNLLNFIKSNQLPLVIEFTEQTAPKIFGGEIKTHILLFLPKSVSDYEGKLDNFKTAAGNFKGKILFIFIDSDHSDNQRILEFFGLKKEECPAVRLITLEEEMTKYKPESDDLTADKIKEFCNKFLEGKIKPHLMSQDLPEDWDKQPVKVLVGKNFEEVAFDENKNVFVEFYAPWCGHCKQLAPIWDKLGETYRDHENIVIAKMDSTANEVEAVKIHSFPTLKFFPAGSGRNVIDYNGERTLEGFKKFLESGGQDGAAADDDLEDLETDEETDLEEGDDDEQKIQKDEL
Protocol: Method for the preparation of protocollagen prolyl hydroxylase: The method of K.I. Kivirikko et al and that of J. Halme et al were partially modified. [cf. Journal of Biological Chemistry 242, 4007 (1967) and Biochimica et Biophysica Acta 198, 460 (1970)]. Thus, 190 chick embryos (14 days old) were homogenized in 1600 ml of NaCl-GlycineTris[tris(hydroxymethyl)aminomethane]-HCl buffer containing 0.1% Triton [polyethylene glycol p-isooctylphenyl ether] X-100 (pH 7.5) and centrifuged. […]
Thus, 1.5 ml of a reaction mixture containing 50 μmols of Tris-HCl buffer (pH 7.8), 0.1 μmol of 1-^14 C-α-ketoglutarate (0.016 μ Ci), 0.5 μmol of ascorbate, 0.1 μmol of ferrous ammonium sulfate, 4.0 mg of heat denatured bovine serum albumin, 0.1 mg of crystalline bovine liver catalase, 0.15 μmol of dithiothreitol, 0.15 mg of (Pro-Pro-Gly)5.4H2 O, 0.5 ml of the enzyme solution and 0.1 ml of either methanol or methanol solution containing an inhibitor was put in a sealed test tube in which a filter paper impregnated with Hyamine (Hydroxide and Hyamine 10-X (Packard Instrument Co.)] had been hung and the reaction was carried out under shaking at 37° C. for 30 minutes. The reaction was terminated by the addition of 0.5 ml of 25% trichloroacetic acid and the enzymic activity was determined by measuring the radioactivity of the released ^14 CO2 trapped in filterpaper. […]

collagen biosynthesis [2] = experiment: Inhibition of collagen biosynthesis in normal rats (uteri of 17-β-estradiol-stimulated immature rats); assay type: in vivo, SD rats (female, 3 weeks old); details: i.p. 100 mg/kg at intervals of 24 hours, 6 days; for inhibition at 100 mg/kg: Rattus norvegicus, ip, vs 17-β-estradiol control
Protocol: According to the partially modified method of R.A. Salvador et al [Archives of Biochemistry and Biophysics 174, 382 (1976)], the following experiment was carried out with SD rats (female, 3 weeks old) in groups of 4 animals.
The test compound suspended in 4% gum arabic-physiological saline was intraperitoneally administered to rats in doses of 100 mg/kg at intervals of 24 hours for 6 consecutive days.
During the final 3 days, 5 μg/rat of 17-β-estradiol in 5% ethanol-saline solution or 5% ethanol-saline solution was administered one hour after the administration of compound (I). On the 7th day, each rat was killed and the uterus was excised, washed with ethanol-diethylether, dried at 60° C. for 2 hours and weighted to know the dry weight. The dry preparation was hydrolyzed with 3 ml of 6N-HCl at 110° C. for 22 hours, after which it was concentrated to dryness to remove the hydrochloric acid. The total amino acid in the hydrolyzate was determined by ninhydrin assay and from this value the total protein content of uterus was calculated as leucine equivalent. The amount of hydroxyproline in the hydrolyzate was also measured by the method of Blumenkratz et al [Analytical Biochemistry 63, 331 (1975)] and multiplied by 7.23 to obtain the amount of collagen. The amount of noncollagenous protein was calculated by substracting the amount of collagen from the total amount of protein.
The inhibitory activity of this compound on the synthesis of collagen and noncollagenous protein in the uteri of 17-β-estradiol-stimulated immature rats are shown as % reductions in the amounts of collagen and noncollagenous protein. Inhibition rate is calculated by the equation described in the legend of Table 2.

[3] = test system: protocollagen prolyl hydroxylase; experiment: Protocollagen prolyl hydroxylase activity in liver in carbon tetrachloride-induced hepatic cirrhosis; assay type: in vivo, Male Sprague-Dawley rats; details: CCl4 + compound, i.p. 100 mg/kg three times weekly, total 10 doses, dpm = decay per minute
Protocol: (§1) Male Sprague-Dawley rats weighting approximately 150 g each were divided into three groups. The first group received both 10% CCl4 -olive oil mixture (1 ml/rat) and compound (I) (100 mg/kg) intraperitoneally three times weekly for a total 10 doses. The second and third groups received 10% CCl4 -olive oil mixture (1 ml/rat) and olive oil (1 ml/rat) intraperitoneally three times weekly for a total 10 doses, respectively. The rats were sacrificed two days after the last injection and the livers were immediately removed for the assays.
A 10% homogenate of the liver was prepared in 20 m mol/l Tris-HCl buffer (pH 7 5) containing 0.2 mol/l NaCl, 0.1 mol/l glycine, 5×10^-5 mol/l 1,4-dithiothreitol, and 0.1% Triton X-100 using a Polytron homogenizer. The homogenate was centrifuged at 15,000 g for 20 minutes and the clear supernatant was assayed for protocollagen prolyl hydroxylase activity by the method of Hutton et al [Analytical Biochemistry 16, 384 (1966)]. The protein content of the homogenate was measured by the method of Lowry et al [Journal of Biological Chemistry 193, 265 (1951)] using bovine serum albumin as the standard.
(§2) The specific activity of protocollagen prolyl hydroxylase and hydroxyproline content in the liver treated with the compound as shown in Table 3.

collagen biosynthesis [4] = experiment: Hydroxyproline content of liver in carbon tetrachloride-induced hepatic cirrhosis; assay type: in vivo, Male Sprague-Dawley rats; details: CCl4 + compound, i.p. 100 mg/kg three times weekly, total 10 doses
Protocol: as §1
Hydroxyproline content of the livers was measured in a 6N-HCl hydrolysate (110° C., 22h) by the method of Blumenkrantz et al.
as §2

Acute toxicity = experiment: Acute toxicity; design: species or system male 4-week-old mice; details: mouse, in vivo, ip; intraperitoneal; mice, groups of 5; 8 days observation
Protocol: Protocatechuic acid was intraperitoneally administered to male 4-week-old mice in groups of 5 animals and the animals were kept under observation for 8 days. The LD50 values thus found was >400 mg/kg for it.

[5] = 17-β-estradiol + compound, uterus, 7th day

IC50 [1]: 17.8 µM
Structure (SMILES): O=C(O)Cc1ccc(O)c(O)c1 [Homoprotocatechnic acid, homoprotocatechuic acid]

Structure (SMILES): O=C(O)c1ccc(O)c(O)c1 [Protocatechuic acid, protocatechuic acid]
IC50 [1]: 19.5 µM | Body weight of rats, 7th day (collagen biosynthesis [2]; 17-β-estradiol + compound): 75 ± 3 g | Total collagen (collagen biosynthesis [2]; [5]): 3.31 ± 0.37 mg/uterus | Total protein (collagen biosynthesis [2]; [5]): 25.4 ± 2.2 mg/uterus | inhibition at 100 mg/kg (collagen biosynthesis [2]; uterus, read-out: Inhibition rate, collagen): 85% | inhibition at 100 mg/kg (collagen biosynthesis [2]; uterus, read-out: Inhibition rate, noncollagenous protein): 15% | Prolyl hydroxylase [3]: 1463 ± 236 dpm/mg of protein | Hydroxyproline (collagen biosynthesis [4]): 0.70 ± 0.09 μg/mg of liver | LD50 at 192 h (Acute toxicity): > 400 mg/kg
